Results as given in ChEMBL document CHEMBL3046912, “Effectiveness of 1,3-dichloropropene as an alternative to methyl bromide in rotations of tomato (Solanum lycopersicum) and cucumber (Cucumis sativus) in China” (2012).
Activity calls are given as the source filed them. The rule behind the calls is not given here.

Experiments:
Arenaria serpyllifolia [1] = test: Herbicidal activity against Arenaria serpyllifolia in tomato plants fields exposed to 180 L/ha compound fumigation treatment assessed as hand weeding time per plot (reference value: 243.3 hr/ha); assay type: functional
Solanum lycopersicum [2] = test: Increase in crop yield in Solanum lycopersicum (tomato) plants exposed to 90 L/ha compound fumigation treatment assessed as extra-large fruit yield (reference value: 3.8 ton/ha); assay type: functional
Capsella bursa-pastoris [3] = test: Herbicidal activity against Capsella bursa-pastoris in tomato plants fields exposed to 90 L/ha compound fumigation treatment assessed as hand weeding time per plot (reference value: 243.3 hr/ha); assay type: functional
Solanum lycopersicum [4] = test: Increase in crop yield in Cucumis sativus (cucumber) plants exposed to 120 L/ha compound fumigation treatment assessed as marketable yield fruit yield (reference value: 65.3 ton/ha); assay type: functional
Arenaria serpyllifolia [5] = test: Herbicidal activity against Arenaria serpyllifolia in tomato plants fields exposed to 90 L/ha compound fumigation treatment assessed as hand weeding time per plot (reference value: 243.3 hr/ha); assay type: functional
Capsella bursa-pastoris [6] = test: Herbicidal activity against Capsella bursa-pastoris in cucumber plants fields exposed to 90 L/ha compound fumigation treatment assessed as hand weeding time per plot (reference value: 258.3 hr/ha); assay type: functional
Digitaria sanguinalis [7] = test: Herbicidal activity against Digitaria sanguinalis (hairy crabgrass) in cucumber plants fields exposed to 90 L/ha compound fumigation treatment assessed as hand weeding time per plot (reference value: 258.3 hr/ha); assay type: functional
Capsella bursa-pastoris [8] = test: Herbicidal activity against Capsella bursa-pastoris in cucumber plants fields exposed to 120 L/ha compound fumigation treatment assessed as hand weeding time per plot relative to untreated control; assay type: functional
Arenaria serpyllifolia [9] = test: Herbicidal activity against Arenaria serpyllifolia in tomato plants fields exposed to 180 L/ha compound fumigation treatment assessed as hand weeding time per plot relative to untreated control; assay type: functional
Digitaria sanguinalis [10] = test: Herbicidal activity against Digitaria sanguinalis (hairy crabgrass) in cucumber plants fields exposed to 120 L/ha compound fumigation treatment assessed as hand weeding time per plot relative to untreated control; assay type: functional
Solanum lycopersicum [11] = test: Increase in crop yield in Cucumis sativus (cucumber) plants exposed to 90 L/ha compound fumigation treatment assessed as medium fruit yield (reference value: 38.6 ton/ha); assay type: functional
Phytophthora melonis = test: Fungicidal activity against Phytophthora melonis-induced blight disease in cucumber plants at 120 to 180 L/ha measured 20 to 60 days post compound treatment; assay type: functional, organism-based
Arenaria serpyllifolia [12] = test: Herbicidal activity against Arenaria serpyllifolia in tomato plants fields exposed to 120 L/ha compound fumigation treatment assessed as hand weeding time per plot (reference value: 243.3 hr/ha); assay type: functional
Capsella bursa-pastoris [13] = test: Herbicidal activity against Capsella bursa-pastoris in cucumber plants fields exposed to 90 L/ha compound fumigation treatment assessed as hand weeding time per plot relative to untreated control; assay type: functional
Solanum lycopersicum [14] = test: Increase in crop yield in Solanum lycopersicum (tomato) plants exposed to 120 L/ha compound fumigation treatment assessed as extra-large fruit yield (reference value: 3.8 ton/ha); assay type: functional
Solanum lycopersicum [15] = test: Increase in plant height of Solanum lycopersicum (tomato) exposed to 180 L/ha compound fumigation treatment measured 50 days after compound treatment (reference value: 86.2 cm); assay type: functional
Solanum lycopersicum [16] = test: Increase in crop yield in Cucumis sativus (cucumber) plants exposed to 90 L/ha compound fumigation treatment assessed as marketable yield fruit yield (reference value: 65.3 ton/ha); assay type: functional
Solanum lycopersicum [17] = test: Increase in crop yield in Cucumis sativus (cucumber) plants exposed to 180 L/ha compound fumigation treatment assessed as medium fruit yield (reference value: 38.6 ton/ha); assay type: functional
Solanum lycopersicum [18] = test: Increase in crop yield in Cucumis sativus (cucumber) plants exposed to 90 L/ha compound fumigation treatment assessed as extra-large fruit yield (reference value: 7.2 ton/ha); assay type: functional
Arenaria serpyllifolia [19] = test: Herbicidal activity against Arenaria serpyllifolia in cucumber plants fields exposed to 180 L/ha compound fumigation treatment assessed as hand weeding time per plot relative to untreated control; assay type: functional
Meloidogyne incognita [20] = test: Nematicidal activity against Meloidogyne incognita (root-knot nematode) in cucumber growing fields exposed to 180 L/ha compound fumigation treatment assessed as root galling index measured 20 days after compound treatment (reference value: 8.72 root galling index); assay type: functional
Capsella bursa-pastoris [21] = test: Herbicidal activity against Capsella bursa-pastoris in tomato plants fields exposed to 180 L/ha compound fumigation treatment assessed as hand weeding time per plot relative to untreated control; assay type: functional
Digitaria sanguinalis [22] = test: Herbicidal activity against Digitaria sanguinalis (hairy crabgrass) in cucumber plants fields exposed to 90 L/ha compound fumigation treatment assessed as hand weeding time per plot relative to untreated control; assay type: functional
Meloidogyne incognita [23] = test: Nematicidal activity against Meloidogyne incognita (root-knot nematode) in tomato growing fields exposed to 120 L/ha compound fumigation treatment assessed as root galling index measured 20 days after compound treatment (reference value: 8.51 root galling index); assay type: functional
Solanum lycopersicum [24] = test: Increase in crop yield in Solanum lycopersicum (tomato) plants exposed to 120 L/ha compound fumigation treatment assessed as medium fruit yield (reference value: 32.3 ton/ha); assay type: functional
Digitaria sanguinalis [25] = test: Herbicidal activity against Digitaria sanguinalis (hairy crabgrass) in tomato plants fields exposed to 90 L/ha compound fumigation treatment assessed as hand weeding time per plot (reference value: 243.3 hr/ha); assay type: functional
Digitaria sanguinalis [26] = test: Herbicidal activity against Digitaria sanguinalis (hairy crabgrass) in tomato plants fields exposed to 180 L/ha compound fumigation treatment assessed as hand weeding time per plot (reference value: 243.3 hr/ha); assay type: functional
Solanum lycopersicum [27] = test: Increase in crop yield in Solanum lycopersicum (tomato) plants exposed to 180 L/ha compound fumigation treatment assessed as marketable yield fruit yield (reference value: 51.3 ton/ha); assay type: functional
Capsella bursa-pastoris [28] = test: Herbicidal activity against Capsella bursa-pastoris in tomato plants fields exposed to 120 L/ha compound fumigation treatment assessed as hand weeding time per plot relative to untreated control; assay type: functional
Capsella bursa-pastoris [29] = test: Herbicidal activity against Capsella bursa-pastoris in cucumber plants fields exposed to 180 L/ha compound fumigation treatment assessed as hand weeding time per plot (reference value: 258.3 hr/ha); assay type: functional
Solanum lycopersicum [30] = test: Increase in plant height of Solanum lycopersicum (tomato) exposed to 180 L/ha compound fumigation treatment measured 30 days after compound treatment (reference value: 28.4 cm); assay type: functional
Cucumis sativus = test: Increase in plant height of Cucumis sativus (cucumber) exposed to 120 L/ha compound fumigation treatment measured 30 days after compound treatment (reference value: 85.6 cm); assay type: functional
Digitaria sanguinalis [31] = test: Herbicidal activity against Digitaria sanguinalis (hairy crabgrass) in cucumber plants fields exposed to 180 L/ha compound fumigation treatment assessed as hand weeding time per plot relative to untreated control; assay type: functional
Arenaria serpyllifolia [32] = test: Herbicidal activity against Arenaria serpyllifolia in cucumber plants fields exposed to 120 L/ha compound fumigation treatment assessed as hand weeding time per plot (reference value: 258.3 hr/ha); assay type: functional
Solanum lycopersicum [33] = test: Increase in crop yield in Cucumis sativus (cucumber) plants exposed to 120 L/ha compound fumigation treatment assessed as large fruit yield (reference value: 19.5 ton/ha); assay type: functional
Capsella bursa-pastoris [34] = test: Herbicidal activity against Capsella bursa-pastoris in cucumber plants fields exposed to 180 L/ha compound fumigation treatment assessed as hand weeding time per plot relative to untreated control; assay type: functional
Meloidogyne incognita [35] = test: Nematicidal activity against Meloidogyne incognita (root-knot nematode) in tomato growing fields exposed to 180 L/ha compound fumigation treatment assessed as root galling index measured 20 days after compound treatment (reference value: 8.51 root galling index); assay type: functional

Cl/C=C/CCl [1,3-DICHLOROPROPENE]
Time (Arenaria serpyllifolia [1]): 55.6 hr/ha | Crop_yield (Solanum lycopersicum [2]): 4.8 tons/ha | Time (Capsella bursa-pastoris [3]): 85.6 hr/ha | Crop_yield (Solanum lycopersicum [4]): 89.1 tons/ha | Time (Arenaria serpyllifolia [5]): 85.6 hr/ha | Time (Capsella bursa-pastoris [6]): 90.5 hr/ha | Time (Digitaria sanguinalis [7]): 90.5 hr/ha | Activity (Capsella bursa-pastoris [8]): 45% | Activity (Arenaria serpyllifolia [9]): 45% | Activity (Digitaria sanguinalis [10]): 45% | Crop_yield (Solanum lycopersicum [11]): 47.7 tons/ha | Activity (Phytophthora melonis): Active | Time (Arenaria serpyllifolia [12]): 66.4 hr/ha | Activity (Capsella bursa-pastoris [13]): 45% | Crop_yield (Solanum lycopersicum [14]): 6.4 tons/ha | Activity (Solanum lycopersicum [15]): 117.8 cm | Crop_yield (Solanum lycopersicum [16]): 84 tons/ha | Crop_yield (Solanum lycopersicum [17]): 52.3 tons/ha | Crop_yield (Solanum lycopersicum [18]): 11.5 tons/ha | Activity (Arenaria serpyllifolia [19]): 45% | Root_galling_index (Meloidogyne incognita [20]): 2.02 | Activity (Capsella bursa-pastoris [21]): 45% | Activity (Digitaria sanguinalis [22]): 45% | Root_galling_index (Meloidogyne incognita [23]): 2.84 | Crop_yield (Solanum lycopersicum [24]): 42.5 tons/ha | Time (Digitaria sanguinalis [25]): 85.6 hr/ha | Time (Digitaria sanguinalis [26]): 55.6 hr/ha | Crop_yield (Solanum lycopersicum [27]): 76.3 tons/ha | Activity (Capsella bursa-pastoris [28]): 45% | Time (Capsella bursa-pastoris [29]): 62.3 hr/ha | Activity (Solanum lycopersicum [30]): 45.4 cm | Activity (Cucumis sativus): 96.8 cm | Activity (Digitaria sanguinalis [31]): 45% | Time (Arenaria serpyllifolia [32]): 74.4 hr/ha | Crop_yield (Solanum lycopersicum [33]): 27.9 tons/ha | Activity (Capsella bursa-pastoris [34]): 45% | Root_galling_index (Meloidogyne incognita [35]): 2.34
